Laboratory results reported in article PMC3784060 (Cancer Chemotherapy and Pharmacology, 2013).

Key:
[1] = system: primary AML cells (AML 08); experiment: Annexin V/PI apoptosis assay, primary AML cells; assay type: cell-based, human; conditions: 2, 20, and 200 nM
Experimental: Primary leukemia cells for in vitro studies were isolated from BM or PB obtained from AML or ALL patients enrolled on a separate University of Maryland, Baltimore, IRB-approved protocol for tissue collection and not treated on this clinical study. The cells were isolated by gradient centrifugation using LSM (Mediatech) according to the manufacturer’s protocol. Cells were used either fresh or after viable freezing (FBS/10 % DMSO). Primary leukemia cells were cultured in RPMI 1640 (Invitrogen, Grand Island, NY, USA) supplemented with 15 % heat-inactivated FBS (HyClone Laboratories Inc., Red Bank, NJ, USA) and 200 mM L-Glutamine (Invitrogen). Leukemia cell lines HL-60 (AML), MOLT-4 (T cell ALL), and K562 (chronic myelogenous leukemia [CML] in erythroid blast transformation) were purchased from American Type Culture Collection (ATCC, Manassas, VA, USA) and cultured in RPMI 1640 (Invitrogen) supplemented with 10 % heat-inactivated FBS (HyClone Laboratories Inc.) and 200 mM L-Glutamine (Invitrogen).

[2] = system: Mcl-1, PARP cleavage in HL-60, MOLT-4, K562; experiment: Western blot, leukemia cell lines in vitro; assay type: cell-based, human; conditions: most prominent with 6 and 24 h exposure
Experimental: Primary leukemia cells for in vitro studies were isolated from BM or PB obtained from AML or ALL patients enrolled on a separate University of Maryland, Baltimore, IRB-approved protocol for tissue collection and not treated on this clinical study. The cells were isolated by gradient centrifugation using LSM (Mediatech) according to the manufacturer’s protocol. Cells were used either fresh or after viable freezing (FBS/10 % DMSO). Primary leukemia cells were cultured in RPMI 1640 (Invitrogen, Grand Island, NY, USA) supplemented with 15 % heat-inactivated FBS (HyClone Laboratories Inc., Red Bank, NJ, USA) and 200 mM L-Glutamine (Invitrogen). […]
For Western blot analysis, leukemia cell pellets (primary leukemia cells, HL-60, MOLT-4, K562) were washed with PBS and lysed with RIPA buffer (Sigma-Aldrich, St. Louis, MO, USA) supplemented with Complete Mini™ protease inhibitor and PHOStop™ phosphatase inhibitors (Roche). […] Blots were washed three times, and the signal was detected with Amersham™ ECL™ detection systems (GE Healthcare, Pittsburgh, PA, USA). […] The Western blot signals were measured by densitometry using ImageJ 1.45I software (NIH, Bethesda, USA).

CCc1cnn2c(NCc3ccc[n+]([O-])c3)cc(N3CCCC[C@H]3CCO)nc12 [Dinaciclib]
apoptosis (AnnexinV/PI flow cytometry) [1]: induced apoptosis in primary AML cells (AML 08) in a time- and concentration-dependent manner | Mcl-1 expression and PARP cleavage [2]: down-regulates the expression of the anti-apoptotic protein Mcl-1 independently of caspases and induces PARP cleavage
